{
  "source": "paper PMC10683482",
  "about": "“Offsetting Low-Affinity Carbohydrate Binding with Covalency to Engage Sugar-Specific Proteins for Tumor-Immune Proximity Induction” (ACS Central Science, 2023)",
  "system": "Hek-PSMA cells",
  "experiment": "Microscopy of induced antibody recruitment (opsonization)",
  "format": "cell-based, human",
  "conditions": "8 μM compound with 4 μM anti-23F 24 h",
  "method": "To test the antitumor immune function of rhamnose SO2F cARMs, GU was again incorporated as a TBD for PSMA targeting (compound 14, Figure 5A, Scheme S5). The ability to selectively induce opsonization of model prostate cancer cells via monoclonal anti-23F was first evaluated using fluorescence microscopy (Figure 5B, Figure S12). Compound 14 (8 μM) was incubated with anti-23F (4 μM) for 24 h followed by addition to PSMA expressing Hek-PSMA cells. Following a 20 min incubation, fluorescent secondary antibody was added. […] The addition of rhamnose competitor during the antibody labeling reaction again inhibited covalent antibody engagement and opsonization of target cells (Figure S12).\nFigure 5 Functional analysis of PSMA-targeting SuFEx cARMs. A. Chemical structure of the functional GU cARM molecule used for PSMA targeting. B. Confocal (top) and fluorescent imaging (bottom) of Hek-PSMA cells treated with anti-23F only or anti-23F antibody pre-incubated with rhamnose-SO2F-cARM 14. C. Jurkat activation assay evaluation of 14 directly in polyclonal human IgG. Each cARM/ARM (9 μM) was incubated with polyclonal human IgG (230 μM) overnight and then added to pre-plated Hek-P cells (50,000 cells). […] Activation of jurkat cells was determined by measuring luciferase expression with a BioGlo assay kit. […] ADCP was determined via flow cytometry. […]",
  "data": [
    {"smiles": "C[C@@H]1O[C@@H](OCc2cn(CCCNC(=O)OCCNC(=O)CCCCCNC(=O)CCCCCNC(=O)CCCCCNC(=O)NCCCC[C@H](NC(=O)N[C@@H](CCC(=O)O)C(=O)O)C(=O)O)nn2)[C@H](O)[C@H](O)[C@H]1O", "note": "[compound 11]", "values": [
      {"measurement": "opsonization of target cells", "result": "failed to opsonize target cells"}
    ]}
  ]
}
